Tests used:
Assay in all cases: relative viability (nuclei count vs DMSO), 5 days (fraction); higher = more cells survive
A-427 = system: A-427
Summary of the method: (§1)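 Values are medians from duplicate plates. Each reflects relative viability, defined as the nuclei count of treated wells over that of vehicle wells. Lung cancer cell lines in 1536-well plates were pin-tool dosed one day after seeding with one drug alone or with a fixed anchor-drug dose plus five library-drug doses (not always all listed) in √10 steps, then fixed, stained and imaged at 4× after 5 days.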

HCC-15 = system: HCC-15
Summary of the method: as §1

HCC-78 = system: HCC-78
Summary of the method: as §1

HOP-62 = system: HOP-62
Summary of the method: as §1

LC-2-ad = system: LC-2-ad
Summary of the method: as §1

LOU-NH91 = system: LOU-NH91
Summary of the method: as §1

LXF-289 = system: LXF-289
Summary of the method: as §1

NCI-H1734 = system: NCI-H1734
Summary of the method: as §1

NCI-H1755 = system: NCI-H1755
Summary of the method: as §1

NCI-H1792 = system: NCI-H1792
Summary of the method: as §1

NCI-H1915 = system: NCI-H1915
Summary of the method: as §1

NCI-H1975 = system: NCI-H1975
Summary of the method: as §1

NCI-H2126 = system: NCI-H2126
Summary of the method: as §1

NCI-H2228 = system: NCI-H2228
Summary of the method: as §1

NCI-H2342 = system: NCI-H2342
Summary of the method: as §1

NCI-H2347 = system: NCI-H2347
Summary of the method: as §1

NCI-H358 = system: NCI-H358
Summary of the method: as §1

NCI-H460 = system: NCI-H460
Summary of the method: as §1

NCI-H522 = system: NCI-H522
Summary of the method: as §1

NCI-H647 = system: NCI-H647
Summary of the method: as §1

PC-3 [JPC-3] = system: PC-3 [JPC-3]
Summary of the method: as §1

RERF-LC-KJ = system: RERF-LC-KJ
Summary of the method: as §1

SK-LU-1 = system: SK-LU-1
Summary of the method: as §1

SW 1573 = system: SW 1573
Summary of the method: as §1

## Clc1ccc(Nc2nnc(Cc3ccncc3)c3ccccc23)cc1 [Vatalanib] + O=C(c1cc(Cc2n[nH]c(=O)c3ccccc23)ccc1F)N1CCN(C(=O)C2CC2)CC1 [Olaparib] (partner 8 µM)
A-427; first compound 0.04 µM
  relative viability: 0.664
A-427; first compound 0.1265 µM
  relative viability: 0.729
A-427; first compound 0.4 µM
  relative viability: 0.768
A-427; first compound 4 µM
  relative viability: 0.666
HCC-15; first compound 0.04 µM
  relative viability: 0.795
HCC-15; first compound 0.1265 µM
  relative viability: 0.723
HCC-15; first compound 0.4 µM
  relative viability: 0.781
HCC-15; first compound 1.265 µM
  relative viability: 0.684
HCC-15; first compound 4 µM
  relative viability: 0.696
HCC-78; first compound 0.04 µM
  relative viability: 0.899
HCC-78; first compound 0.1265 µM
  relative viability: 0.865
HCC-78; first compound 0.4 µM
  relative viability: 0.761
HCC-78; first compound 1.265 µM
  relative viability: 0.823
HCC-78; first compound 4 µM
  relative viability: 0.775
HOP-62; first compound 0.04 µM
  relative viability: 0.385
HOP-62; first compound 0.1265 µM
  relative viability: 0.389
HOP-62; first compound 0.4 µM
  relative viability: 0.523
HOP-62; first compound 1.265 µM
  relative viability: 0.41
HOP-62; first compound 4 µM
  relative viability: 0.419
LC-2-ad; first compound 0.04 µM
  relative viability: 0.661
LC-2-ad; first compound 0.1265 µM
  relative viability: 0.67
LC-2-ad; first compound 0.4 µM
  relative viability: 0.686
LC-2-ad; first compound 1.265 µM
  relative viability: 0.694
LC-2-ad; first compound 4 µM
  relative viability: 0.69
LOU-NH91; first compound 0.04 µM
  relative viability: 0.912
LOU-NH91; first compound 0.1265 µM
  relative viability: 0.886
LOU-NH91; first compound 0.4 µM
  relative viability: 0.793
LOU-NH91; first compound 1.265 µM
  relative viability: 0.881
LOU-NH91; first compound 4 µM
  relative viability: 0.875
LXF-289; first compound 0.04 µM
  relative viability: 1.04
LXF-289; first compound 0.1265 µM
  relative viability: 1
LXF-289; first compound 0.4 µM
  relative viability: 1.13
LXF-289; first compound 1.265 µM
  relative viability: 0.975
LXF-289; first compound 4 µM
  relative viability: 1.03
NCI-H1734; first compound 0.04 µM
  relative viability: 0.64
NCI-H1734; first compound 0.1265 µM
  relative viability: 0.582
NCI-H1734; first compound 0.4 µM
  relative viability: 0.621
NCI-H1734; first compound 1.265 µM
  relative viability: 0.609
NCI-H1734; first compound 4 µM
  relative viability: 0.617
NCI-H1755; first compound 0.04 µM
  relative viability: 0.773
NCI-H1755; first compound 0.1265 µM
  relative viability: 0.847
NCI-H1755; first compound 0.4 µM
  relative viability: 0.878
NCI-H1755; first compound 1.265 µM
  relative viability: 0.901
NCI-H1755; first compound 4 µM
  relative viability: 0.838
NCI-H1792; first compound 0.04 µM
  relative viability: 0.52
NCI-H1792; first compound 0.1265 µM
  relative viability: 0.384
NCI-H1792; first compound 0.4 µM
  relative viability: 0.399
NCI-H1792; first compound 1.265 µM
  relative viability: 0.344
NCI-H1792; first compound 4 µM
  relative viability: 0.413
NCI-H1915; first compound 0.04 µM
  relative viability: 0.258
NCI-H1915; first compound 0.1265 µM
  relative viability: 0.265
NCI-H1915; first compound 0.4 µM
  relative viability: 0.275
NCI-H1915; first compound 1.265 µM
  relative viability: 0.233
NCI-H1915; first compound 4 µM
  relative viability: 0.253
NCI-H1975; first compound 0.04 µM
  relative viability: 0.84
NCI-H1975; first compound 0.1265 µM
  relative viability: 0.727
NCI-H1975; first compound 0.4 µM
  relative viability: 0.729
NCI-H1975; first compound 1.265 µM
  relative viability: 0.709
NCI-H1975; first compound 4 µM
  relative viability: 0.695
NCI-H2126; first compound 0.04 µM
  relative viability: 0.888
NCI-H2126; first compound 0.1265 µM
  relative viability: 0.926
NCI-H2126; first compound 0.4 µM
  relative viability: 0.938
NCI-H2126; first compound 1.265 µM
  relative viability: 0.85
NCI-H2126; first compound 4 µM
  relative viability: 0.966
NCI-H2228; first compound 0.04 µM
  relative viability: 0.648
NCI-H2228; first compound 0.1265 µM
  relative viability: 0.772
NCI-H2228; first compound 0.4 µM
  relative viability: 0.816
NCI-H2228; first compound 1.265 µM
  relative viability: 0.654
NCI-H2228; first compound 4 µM
  relative viability: 0.598
NCI-H2342; first compound 0.04 µM
  relative viability: 0.397
NCI-H2342; first compound 0.1265 µM
  relative viability: 0.452
NCI-H2342; first compound 0.4 µM
  relative viability: 0.461
NCI-H2342; first compound 1.265 µM
  relative viability: 0.365
NCI-H2342; first compound 4 µM
  relative viability: 0.471
NCI-H2347; first compound 0.04 µM
  relative viability: 0.647
NCI-H2347; first compound 0.1265 µM
  relative viability: 0.538
NCI-H2347; first compound 0.4 µM
  relative viability: 0.643
NCI-H2347; first compound 1.265 µM
  relative viability: 0.623
NCI-H2347; first compound 4 µM
  relative viability: 0.597
NCI-H358; first compound 0.04 µM
  relative viability: 0.566
NCI-H358; first compound 0.1265 µM
  relative viability: 0.548
NCI-H358; first compound 0.4 µM
  relative viability: 0.639
NCI-H358; first compound 1.265 µM
  relative viability: 0.769
NCI-H358; first compound 4 µM
  relative viability: 0.562
NCI-H460; first compound 0.04 µM
  relative viability: 0.4
NCI-H460; first compound 0.1265 µM
  relative viability: 0.44
NCI-H460; first compound 1.265 µM
  relative viability: 0.494
NCI-H460; first compound 4 µM
  relative viability: 0.377
NCI-H522; first compound 0.04 µM
  relative viability: 0.756
NCI-H522; first compound 0.1265 µM
  relative viability: 0.705
NCI-H522; first compound 0.4 µM
  relative viability: 0.746
NCI-H522; first compound 1.265 µM
  relative viability: 0.565
NCI-H522; first compound 4 µM
  relative viability: 0.774
NCI-H647; first compound 0.04 µM
  relative viability: 0.612
NCI-H647; first compound 0.1265 µM
  relative viability: 0.582
NCI-H647; first compound 0.4 µM
  relative viability: 0.582
NCI-H647; first compound 1.265 µM
  relative viability: 0.584
NCI-H647; first compound 4 µM
  relative viability: 0.531
PC-3 [JPC-3]; first compound 0.04 µM
  relative viability: 1.15
PC-3 [JPC-3]; first compound 0.1265 µM
  relative viability: 1.02
PC-3 [JPC-3]; first compound 0.4 µM
  relative viability: 0.786
PC-3 [JPC-3]; first compound 1.265 µM
  relative viability: 1.04
PC-3 [JPC-3]; first compound 4 µM
  relative viability: 1.1
RERF-LC-KJ; first compound 0.04 µM
  relative viability: 0.879
RERF-LC-KJ; first compound 0.1265 µM
  relative viability: 1.04
RERF-LC-KJ; first compound 0.4 µM
  relative viability: 0.913
RERF-LC-KJ; first compound 1.265 µM
  relative viability: 0.832
RERF-LC-KJ; first compound 4 µM
  relative viability: 0.882
SK-LU-1; first compound 0.04 µM
  relative viability: 0.438
SK-LU-1; first compound 0.1265 µM
  relative viability: 0.449
SK-LU-1; first compound 0.4 µM
  relative viability: 0.52
SK-LU-1; first compound 1.265 µM
  relative viability: 0.467
SK-LU-1; first compound 4 µM
  relative viability: 0.365
SW 1573; first compound 0.04 µM
  relative viability: 0.466
SW 1573; first compound 0.1265 µM
  relative viability: 0.521
SW 1573; first compound 0.4 µM
  relative viability: 0.506
SW 1573; first compound 1.265 µM
  relative viability: 0.55
SW 1573; first compound 4 µM
  relative viability: 0.355
